Earlier results in US20070293674A1, “Novel Saperconazole Crystalline Forms and Related Processes, Pharmaceutical Compositions and Methods” (TRANSFORM PHARMACEUTICALS, INC., priority 2004, published 2007).

How the values were obtained:
[1] = free base
[2] = piperazine of itraconazole

solubility in water [1]: only very sparingly soluble in water | pKa value for the piperazine [2]: 3.7
SMILES: CCC(C)n1ncn(-c2ccc(N3CCN(c4ccc(OC[C@H]5CO[C@](Cn6cncn6)(c6ccc(Cl)cc6Cl)O5)cc4)CC3)cc2)c1=O (mixture of isomers) [itraconazole, 4-[4-[4-[4-[[2-(2,4-dichlorophenyl)-2-(1H-1,2,4-triazol-1-ylmethyl)-1,3-dioxolan-4-yl]methoxy]phenyl]-1-piperazinyl]phenyl]-2,4-dihydro-2-(1-methylpropyl)-3H-1,2,4-triazol-3-one]
